The values that follow are results of earlier work, collected in patent US10918699B2, “Therapeutic treatment for neurotrophic keratopathy” (priority 2017, dated 2021).

Series [1] concerns corneal epithelium wound healing. The settings on record: together with substance-P; several pre-clinical studies.
For series [2], the system named is corneal ulcers. The settings on record: systemic administration, humans, 1945 case series.
The subject of series [3] is cultured sheets of corneal epithelial cells.

As for Insulin-like growth factor-1 [IGF-1], the “corneal epithelium wound healing” value in series [1] is “act synergistically with substance-P”. For the substance insulin, the “healing of corneal ulcers” value in series [2] was “improved healing”. In addition, the “cell migration and closure of artificial wounds” value in series [3] is “promoted cell migration and closure of artificial wounds”.
